Measured values from patent US4370335A, “Antisecretory 4-diphenylmethyl-1-[(oxoalkyl)imino]methyl-piperidines and their derivatives” (McNeilab, Inc., priority 1982, dated 1983).
Counter-ions that a name gives are not always drawn.

These compounds were tested on gastric acid secretion (assay: Acute Gastric Fistula, Rat: inhibition of gastric acid secretion (Total Acid Output)). Conditions: po, 1 h, one hour prior to surgery, dose for average 50% inhibition in Total Acid Output versus controls, collection at one hour.
Assay type: in vivo, Female Sprague-Dawley rats
Procedure: The compounds of the invention are useful for inhibition of gastric acid secretion as measured by the following test. Female Sprague-Dawley rats are fasted twenty-four hours before testing and are given water ad libidum while being kept in individual cages. On the day of testing, the rats are weighed and are selected so that the rats in each test weigh within a range ±20 grams.
Surgery is carried out under light ether anesthesia. As soon as the rat is anesthetized its teeth are removed and a mid-line incision is made on the abdomen about 11/2 inches in length and the stomach and duodenum are exposed. If at this point the stomach is filled with food or fecal material, the rat is discarded. If the condition of the stomach is acceptable, a purse string stitch is placed on the fundic portion of the stomach with a suture, taking care not to pierce any blood vessels in the area. A small nick is then made into the stomach in the center of the purse string, and a cannula, consisting of a small vinyl tube with a flange on one end, is put into the stomach, and the purse string stitch is closed tightly around the flange. The test compound is administered either intraduodenally (i.d.) immediately after surgery or orally (p.o.) one hour prior to surgery at doses generally ranging from about 0.25 to about 160 mg/kg in a volume of 0.5 ml/100 grams rat. Control rats receive the test vehicle, 0.5% aqueous methyl cellulose.
After the surgery and (in the case of i.d. administration) after administration of the test compound, the abdominal wall and skin are closed simultaneously with three or four 18 mm wound clips and a collecting tube is placed on the cannula. Each rat is then placed in a box in which a longitudinal slit has been made to allow the cannula to hang freely and to allow the rat to move about unencumbered. After the rat has been allowed to stabilize for thirty minutes, the collection tube on the cannula is discarded and replaced with a clean tube to receive the gastric juice. Collections are made at one hour. At the end of the study, the cannula is removed and the rat is sacrificed.
The sample of gastric contents collected is drained into a centrifuge tube and centrifuged to pack down the sediment. The volume is read and a 1 ml aliquot of the supernatant is put into a beaker containing 10 ml distilled water and is titrated to pH 7 using 0.01 N sodium hydroxide. Results are determined for Volume, Titratable Acid and Total Acid Output, where Volume equals total ml of gastric juice minus sediment; Titratable Acid (meq/l) equals amount of 0.01 N sodium hydroxide needed to titrate the acid to pH 7; and Total Acid Output equals Titratable Acid times Volume. Results are reported as the ED50 dose (mg/kg required to produce an average of 50% inhibition in Total Acid Output versus controls in all the animals tested for a particular compound) and as percent inhibition.
The results obtained for representative compounds of the invention by the above test for inhibition of gastric secretion are shown in Table I: […]
With `CC1(CCCCCCN=CN2CCC(C(c3ccccc3)c3ccccc3)CC2)OCCO1` [Example 1, 4-(Diphenylmethyl)-1-{{[6-(2-methyl-1,3-dioxolan-2-yl)hexyl]imino}methyl}piperidine (E)-2-Butenedioate (1:1) Hydrate (10:7)] the ED50 was 3.14 mg/kg.
Compound `CC(=O)CCCCCCN=CN1CCC(C(c2ccccc2)c2ccccc2)CC1` [Example 2, 4-(Diphenylmethyl)-1-{[(7-oxooctyl)imino]methyl}piperidine (E)-2-Butenedioate (1:1) Hydrate (10:7)] has an ED50 of 14.7 mg/kg.
`CC(O)CCCCCCN=CN1CCC(C(c2ccccc2)c2ccccc2)CC1` (stereo not drawn) [Example 3, 4-(Diphenylmethyl)-1-{[(7-hydroxyoctyl)imino]methyl}piperidine 2-Naphthalenesulfonate (1:1) Hydrate (4:1)] was tested, and the ED50 was 78.1 mg/kg.
Work on `CC(CCCCCCN=CN1CCC(C(c2ccccc2)c2ccccc2)CC1)=NO` [Example 4, 4-(Diphenylmethyl)-1-{{[7-(hydroxyimino)octyl]imino}methyl}piperidine 2-Naphthalenesulfonate (1:1) Hydrate (5:1)] yielded an ED50 of 12.3 mg/kg.
`CC(=O)CCCCCCCCN=CN1CCC(C(c2ccccc2)c2ccccc2)CC1` [Example 5] showed an ED50 of 4.76 mg/kg.
Work on `CC(=O)CN=CN1CCC(C(c2ccccc2)c2ccccc2)CC1` [Example 6, 4-Diphenylmethyl-1-[(2-oxopropyl)imino]methyl piperidine Hydrochloride (1:1) Hydrate (10:1)] yielded an ED50 of 6.07 mg/kg.
